Results as given in ChEMBL document CHEMBL1909590, “Design, synthesis and docking studies of new quinoline-3-carbohydrazide derivatives as antitubercular agents” (2011).
≈ marks a conversion by molar mass, not a printed value.

What was measured:
Assay type in all cases: functional
[1] = test system: Staphylococcus aureus; assay: Antibacterial activity against Staphylococcus aureus ATCC 25923 after 18 to 25 hrs by serial plate dilution method
[2] = test system: Pseudomonas aeruginosa; assay: Antibacterial activity against Pseudomonas aeruginosa ATCC 27853 after 18 to 25 hrs by serial plate dilution method
[3] = test system: Mycolicibacterium smegmatis; assay: Antimycobacterial activity against Mycobacterium smegmatis MC2 ATCC 19420 using compound level ranging from 1 to 100 ug/mL after 7 days by resazurin reduction test; conditions: MC2 ATCC 19420, 168 h
[4] = test system: Klebsiella pneumoniae; assay: Antibacterial activity against Klebsiella pneumoniae clinical isolates after 18 to 25 hrs by serial plate dilution method
[5] = test system: Streptococcus pyogenes; assay: Antibacterial activity against Streptococcus pyogenes clinical isolate after 18 to 25 hrs by serial plate dilution method
[6] = test system: Mycobacterium tuberculosis; assay: Antimycobacterial activity against Mycobacterium tuberculosis H37Rv ATCC 27294 using compound level ranging from 0.3125 to 5 ug/mL after 7 days by resazurin reduction test; conditions: H37Rv ATCC 27294, 168 h
[7] = test system: Mycolicibacterium fortuitum; assay: Antimycobacterial activity against Mycobacterium fortuitum ATCC 19542 using compound level ranging from 0.3125 to 5 ug/mL after 7 days by resazurin reduction test; conditions: ATCC 19542, 168 h
[8] = test system: Mycobacterium tuberculosis; assay: Growth inhibition of Mycobacterium tuberculosis H37Rv ATCC 27294 using compound level ranging from 1 to 100 ug/mL after 7 days by resazurin reduction test
[9] = test system: Escherichia coli; assay: Antibacterial activity against Escherichia coli ATCC 25922 after 18 to 25 hrs by serial plate dilution method
[10] = test system: Mycolicibacterium fortuitum; assay: Antimycobacterial activity against Mycobacterium fortuitum ATCC 19542 using compound level ranging from 1 to 100 ug/mL after 7 days by resazurin reduction test; conditions: ATCC 19542, 168 h
[11] = test system: Mycolicibacterium smegmatis; assay: Antimycobacterial activity against Mycobacterium smegmatis MC2 ATCC 19420 using compound level ranging from 0.3125 to 5 ug/mL after 7 days by resazurin reduction test; conditions: MC2 ATCC 19420, 168 h
[12] = test system: Mycobacterium tuberculosis; assay: Antimycobacterial activity against Mycobacterium tuberculosis H37Rv ATCC 27294 using compound level ranging from 1 to 100 ug/mL after 7 days by resazurin reduction test; conditions: H37Rv ATCC 27294, 168 h

COc1ccc(/C=N/NC(=O)c2cnc3c(C(F)(F)F)cccc3c2O)c(F)c1
MIC [1]: 0.8 mg/L (≈ 1.96 µM)
MIC [2]: 0.4 mg/L (≈ 0.982 µM)
MIC [3]: 10 mg/L (≈ 24.6 µM)
MIC [4]: 0.1 mg/L (≈ 0.246 µM)
MIC [5]: 0.4 mg/L (≈ 0.982 µM)
MIC [6]: 0.625 mg/L (≈ 1.53 µM)
MIC [7]: 10 mg/L (≈ 24.6 µM)
growth inhibition (GI) [8]: 95%
MIC [9]: 0.1 mg/L (≈ 0.246 µM)
MIC [10]: 10 mg/L (≈ 24.6 µM)
MIC [11]: 10 mg/L (≈ 24.6 µM)
MIC [12]: 1 mg/L (≈ 2.46 µM)

Cc1cccc2c(/C=N/NC(=O)c3cnc4c(C(F)(F)F)cccc4c3O)c[nH]c12
MIC [1]: 0.8 mg/L (≈ 1.94 µM)
MIC [2]: 0.4 mg/L (≈ 0.97 µM)
MIC [3]: 1 mg/L (≈ 2.43 µM)
MIC [4]: 0.1 mg/L (≈ 0.243 µM)
MIC [5]: 0.4 mg/L (≈ 0.97 µM)
MIC [6]: 0.625 mg/L (≈ 1.52 µM)
MIC [7]: 10 mg/L (≈ 24.3 µM)
growth inhibition (GI) [8]: 95%
MIC [9]: 0.1 mg/L (≈ 0.243 µM)
MIC [10]: 10 mg/L (≈ 24.3 µM)
MIC [11]: 1.25 mg/L (≈ 3.03 µM)
MIC [12]: 1 mg/L (≈ 2.43 µM)
